Here are results for 11 compounds from ChEMBL document CHEMBL1201862, “PubChem BioAssay data set” (2004).

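Briefly, cells in 96-well plates were exposed to five compound concentrations for 48 h, and endpoints were estimated by linear interpolation. GI50 = concentration required for 50% inhibition of growth.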 Activity calls are given as the source filed them. Cut-off read from the data, not from the text of the source: active = GI50 up to about 1.1 µM and inactive = higher.

Holding throughout (test): inhibition of tumour cell growth, NCI panel, 48 h
In assay [1] the test system is 786-0.
For assay [2], the system named is A549.
The test system of assay [3] is BT-549.
The test system of assay [4] is COLO 205.
The subject of assay [5] is HCT-15.
Assay [6] concerns HL-60.
Assay [7] relates to KM12.
Assay [8] concerns NCI-H226.
For assay [9], the system named is NCI-H460.
Assay [10] relates to OVCAR-3.
The test system of assay [11] is OVCAR-4.
In assay [12] the test system is OVCAR-5.
The subject of assay [13] is OVCAR-8.
Assay [14] has as its system SF-268.
Assay [15] has as its system SF-539.
Assay [16] relates to SK-MEL-5.
Assay [17] deals with SNB-19.
In assay [18] the test system is UO-31.
Assay [19] concerns A498.
Assay [20] relates to HOP-92.

For `Oc1ccc(-c2nc3ccc(F)cc3s2)cc1`, the GI50 is 18.5 µM (inactive) in assay [1]; 19.8 µM (inactive) in assay [2]; 18.1 µM (inactive) in assay [3]; 16.2 µM (inactive) in [4]; 18 µM in [5]; 22.4 µM (inactive) in assay [6]. Further, the GI50 in [7] was 15.7 µM (inactive); in [8] it was 18.6 µM (inactive); in [9] it was 24.1 µM (inactive); in assay [10], 30.7 µM (inactive); in [11], 23 µM (inactive); in assay [12], 21.7 µM (inactive). Also, the GI50 in assay [13] was 19.4 µM (inactive); in assay [14] it was 23.2 µM (inactive); in [15], 17.8 µM (inactive); in assay [16], 18 µM (inactive); in [17], 19.3 µM (inactive); in assay [18], 15.2 µM (inactive).
For the compound `CCCCCCCCCCCCOC1C(COCCN2CCCCC2)OC2OC(C)(C)OC21` (stereo not drawn), the GI50 in assay [1] was 1.73 µM (inactive); in [19] it was 14.8 µM (inactive); in assay [2] it was 6.58 µM (inactive); in [3], 2.21 µM (inactive); in assay [4] it was 1.66 µM (inactive); in assay [5] it was 1.79 µM. The GI50 in [6] was 1.24 µM (inactive); in assay [7] it was 1.64 µM (inactive); in assay [8], 3.99 µM (inactive); in assay [9], 1.9 µM (inactive); in [10] it was 2.5 µM (inactive); in [12], 1.85 µM (inactive). The GI50 in [13] was 1.8 µM (inactive); in assay [14], 2.67 µM (inactive); in assay [15], 1.76 µM (inactive); in assay [16], 1.58 µM (inactive); in assay [17], 2.5 µM (inactive); in assay [18] it was 1.59 µM (inactive).
For `O=C(CC(=O)n1nc(-c2ccccc2)c(/N=N/c2ccccc2Cl)c1-c1ccccc1)Nc1ccc(Cl)cc1`, the GI50 in assay [1] was > 52.7 µM (inactive); in assay [19], > 100 µM (inactive); in assay [2], > 54.1 µM (inactive); in assay [4], > 44.5 µM (inactive); in assay [5], > 43 µM; in assay [6] it was > 42.8 µM (inactive). Besides, the GI50 in [20] is > 100 µM (inactive); in assay [7], > 100 µM (inactive); in assay [8] it was > 100 µM (inactive); in assay [9], > 48.1 µM (inactive); in [10], > 100 µM (inactive); in assay [11], > 100 µM (inactive). Further, the GI50 in assay [12], in [13], in assay [14], in assay [15], in assay [16] and in assay [17] was > 100 µM (inactive) in each case. Moreover, in [18], the GI50 is > 100 µM (inactive).
On to `CC(C)(C)C(=O)C(C(=O)c1ccccc1)C(=O)C(C)(C)C`, for which the GI50 is > 100 µM (inactive) in assay [1]; > 100 µM (inactive) in assay [19]; > 100 µM (inactive) in assay [2]; > 100 µM (inactive) in assay [4]; > 100 µM in [5]; > 100 µM (inactive) in [6]. In addition, the GI50 in assay [20] is > 100 µM (inactive); in assay [7] it was > 100 µM (inactive); in [8], > 100 µM (inactive); in [9], > 100 µM (inactive); in assay [10], > 100 µM (inactive); in assay [11], 64.7 µM (inactive). Further, the GI50 in [12] was > 100 µM (inactive); in assay [13], 48.5 µM (inactive); in assay [14] it was > 100 µM (inactive); in [15], > 100 µM (inactive); in assay [16] it was > 100 µM (inactive); in assay [17], > 100 µM (inactive). In assay [18], the GI50 was > 100 µM (inactive).
Regarding `Cc1ccc(C2=C(c3ccccc3)C(Br)(c3ccccc3)C(c3ccccc3)=C2c2ccc(C)cc2)cc1`, the GI50 was > 100 µM (inactive) in assay [1]; > 100 µM (inactive) in [19]; > 100 µM (inactive) in [2]; > 100 µM (inactive) in [4]; > 100 µM in assay [5]; > 100 µM (inactive) in assay [6]. For the same compound, the GI50 in [20], in assay [7], in assay [8], in assay [9], in assay [10] and in [11] was > 100 µM (inactive) each time. The GI50 in assay [12], in assay [13], in [14], in assay [15], in [16] and in [17] was > 100 µM (inactive) each time. In addition, in [18], the GI50 was > 100 µM (inactive).
As for `O=C(O)CC(C(=O)O)C1c2ccccc2-c2ccccc21` (stereo not drawn), the GI50 in assay [1] is > 100 µM (inactive); in [19], > 100 µM (inactive); in assay [2], 56.4 µM (inactive); in assay [3] it was > 100 µM (inactive); in assay [4], 81.8 µM (inactive); in assay [5], > 100 µM. For the same compound, the GI50 was > 100 µM (inactive) in assay [6]; 66.8 µM (inactive) in assay [7]; > 100 µM (inactive) in assay [8]; 33.6 µM (inactive) in [9]; 35.5 µM (inactive) in assay [10]; > 100 µM (inactive) in assay [11]. The GI50 in assay [13] is 67 µM (inactive); in assay [14], 79.6 µM (inactive); in assay [16], > 100 µM (inactive); in [17], 34 µM (inactive); in assay [18], > 100 µM (inactive).
For the compound `CC1=CC2C(=O)N(c3ccccc3)C(=O)C2CC1n1[nH]c(=O)n(Cc2ccccc2)c1=O` (stereo not drawn), the GI50 in assay [1] is > 100 µM (inactive); in [19] it was > 100 µM (inactive); in [2], > 100 µM (inactive); in [4] it was > 100 µM (inactive); in assay [5], > 100 µM; in [6] it was > 100 µM (inactive). Besides, the GI50 in assay [20], in assay [7], in [8], in [9], in [10] and in assay [11] was > 100 µM (inactive) each time. Also, the GI50 in [12], in assay [13], in assay [14], in [15], in assay [16] and in assay [17] was > 100 µM (inactive) throughout. Moreover, in assay [18], the GI50 was > 100 µM (inactive).
On to `COCCN1C(=O)C2c3[nH]c4ccccc4c3C3CCC(C(C)(C)C)CC3C2C1=O` (stereo not drawn), for which the GI50 in assay [1] was 17.2 µM (inactive); in assay [2], 19.1 µM (inactive); in [3], 18.8 µM (inactive); in [4], 18.2 µM (inactive); in assay [5], 16.9 µM; in [6] it was 16 µM (inactive). The GI50 was 19.2 µM (inactive) in assay [7]; 22.1 µM (inactive) in assay [8]; 14.8 µM (inactive) in [9]; 17.5 µM (inactive) in [10]; 16.9 µM (inactive) in [11]; 20.7 µM (inactive) in [13]. Besides, the GI50 in [14] is 19.2 µM (inactive); in assay [15] it was 19.1 µM (inactive); in [16] it was 17 µM (inactive); in assay [17], 19.1 µM (inactive); in assay [18], 13.9 µM (inactive).
For `COC(=O)c1c(C(=O)OC)c2ccc(-c3ccc(Cl)cc3)nn2c1C(=O)c1ccc([N+](=O)[O-])cc1`, the GI50 in assay [1] is 39.4 µM (inactive); in assay [19], > 100 µM (inactive); in [2] it was > 100 µM (inactive); in [4], 27.3 µM (inactive); in [5] it was 25.2 µM; in assay [6], < 0.01 µM (active). Further, the GI50 in assay [20] was 10.8 µM (inactive); in assay [7] it was > 100 µM (inactive); in [8], > 100 µM (inactive); in [9] it was > 100 µM (inactive); in [10], 43.5 µM (inactive); in assay [11], 42.3 µM (inactive). For the same compound, the GI50 in [12] is > 100 µM (inactive); in [13], 36.2 µM (inactive); in [14] it was 44.7 µM (inactive); in [15], 44.4 µM (inactive); in assay [16] it was 52.1 µM (inactive); in assay [17], > 100 µM (inactive). In addition, the GI50 in assay [18] is 32.1 µM (inactive).
For the compound `Cc1ccccc1C(=O)c1ccccc1O`, the GI50 in assay [1] is > 100 µM (inactive); in assay [19], > 100 µM (inactive); in assay [2], > 100 µM (inactive); in assay [4], > 100 µM (inactive); in assay [5] it was > 100 µM; in [6], > 100 µM (inactive). Besides, the GI50 in [20], in assay [7], in assay [8], in assay [9], in [10] and in [11] was > 100 µM (inactive) throughout. Moreover, the GI50 in assay [12], in assay [13], in [14], in assay [15], in assay [16] and in assay [17] was > 100 µM (inactive) each time. For the same compound, in [18], the GI50 was 24.6 µM (inactive).
For the compound `CN(CO)c1nc(N(C)CO)nc(N(C)CO)n1` [TRIMELAMOL], the GI50 is 24.2 µM (inactive) in assay [1]; 23.7 µM (inactive) in [19]; 12.8 µM (inactive) in assay [2]; 20.9 µM (inactive) in assay [3]; 8.53 µM (inactive) in [4]; 9.89 µM in [5]. The GI50 is 4.75 µM (inactive) in assay [6]; 15.1 µM (inactive) in assay [7]; 27.7 µM (inactive) in assay [10]; 26.4 µM (inactive) in assay [12]; 14.5 µM (inactive) in assay [13]; 6.95 µM (inactive) in assay [16]. For the same compound, the GI50 in assay [17] was 16.1 µM (inactive); in assay [18], 19 µM (inactive).
